{
  "source": "patent US20070117182A1",
  "about": "“Nucleic acids conferring transcriptional responsiveness on the RANKL gene promoter and uses thereof” (Wisconsin Alumni Research Foundation, priority 2005, published 2007)",
  "system": "D5 fragment in MC-3T3-E1",
  "assay": "pRL-D5/TK-luc reporter in MC-3T3-E1 cells",
  "assay_type": "cell-based",
  "settings": "osteoblast mouse cell line MC-3T3-E1, which does not produce RANKL",
  "data": [
    {"molecule": "C=C1/C(=C\\C=C2/CCC[C@]3(C)[C@@H]([C@H](C)CCCC(C)(C)O)CC[C@@H]23)C[C@@H](O)C[C@@H]1O", "note": "[1,25(OH)2D3]", "values": [
      {"measurement": "stimulation via the D5 fragment in MC-3T3-E1", "result": "failed to stimulate"}
    ]}
  ]
}
